Data set [1] concerns Japan white breeding rabbits. To be noted: rabbit, in vivo. How it is done: Six medically inspected Japan white breeding rabbits (conventional) were given a haircut along the spine and 6 spots of 2x3 cm each were closed patched with 0.5 g of Composition No.6 powder or 0.25 g of a powder of the compound represented by chemical formula 2 using bandage and gauze. Evaluation was conducted for the degree of erythema, scab formation and edema formation at a time interval of after 4 hours, 1 day, 2 days, 3 days, 4 days and 5 days.
Evaluation standard (Draize method)
From the above table, the following primary irritancy was obtained. Irritation index was obtained from Equation 1. Irritation index was obtained from the following table. Irritation index and safety classification are as follows. [formula]
Evaluation was conducted according to the method employed in Example 6.

For data set [2] the following is noted: cited from earlier work; for solubility in water: temperature not given.
Data set [3] is described as follows: Elution test of microcapsule powder in Isopal G. It counts as physicochemical. To be noted: unencapsulated compound of chemical formula 1, temperature not given. How it is done: Elution test was conducted on microcapsule powder using Isopal G (aliphatic solvent EXXON Chemical company) which dissolves the compound of the chemical formula 1 in an optional rate. […] of the capsule powder was added to 10ml of Isopal G, and the mixture was maintained at room temperature or at 40 °C for 12 hours, and the amount of the compound of the chemical formula 1 eluted from the microcapsules was determined by gas chromatography. The rate of elution (active ingredient in Isopal G/added amount of active ingredient) was calculated.

Take `N#CSCSc1nc2ccccc2s1` [Compound of the chemical formula 7, thiocyano methylthiobenzothiazol]: in data set [1], the “Skin irritation, safety classification (irritation index)” value is “medium irritant”. Moreover, the solubility in water in data set [2] is reported as 100 ppm.

As for `S=C=Nc1ccc(Cl)c(Cl)c1` [Unencapsulated, 3,4-dichlorophenyl-isothiocyanate], the “rate of elution (active ingredient in Isopal G/added amount of active ingredient)” value in data set [3] is 100% elution. Consider `O=S1(=O)CC(Cl)(Cl)C(Cl)(Cl)C1` [compound of the chemical formula 2, Tetrachlorotetrahydrothiophene-1,1-dioxide], for which the “water solubility (25 °C)” value in data set [2] is “about 900 ppm”. For `CNC(=O)Oc1cccc2c1OC(C)(C)C2` [compound of the chemical formula 6, 2,3-dihydro-2,2-dimethylbenzofuran-7-yl-methylcarbamate], the solubility in water in data set [2] was 700 ppm. `CCCCCCCCn1sc(Cl)c(Cl)c1=O` [Compound of formula 4, 4,5-Dichloro-2-n-octyl-4-isothiazoline-3-one]: the “Skin irritation, safety classification (irritation index)” value in data set [1] is listed as “strong irritation”. Besides, the “water solubility (25 °C)” value in data set [2] is 6 ppm.

The values above are taken from patent EP0686425A1, “PROCESS FOR PRODUCING MICROCAPSULE OF HYDROPHOBIC DRUG” (SANSUI CO., LTD., priority 1993, dated 1995).
